PMC4318582, “Chemotherapy of Second Stage Human African Trypanosomiasis: Comparison between the Parenteral Diamidine DB829 and Its Oral Prodrug DB868 in Vervet Monkeys” (PLoS Neglected Tropical Diseases, 2015)
Where “and” joins values, the source holds several entries; their conditions need not be identical. Identical values can stand only once.

Columns and labels:
[1] = test system: T. b. rhodesiense KETRI 2537; assay: Efficacy in KETRI vervet monkey model of second stage HAT; format: in vivo
Text: The current study used the KETRI vervet monkey model of HAT, a model developed over 30 years ago through the experimental infection of vervet monkeys with T. b. rhodesiense. […] Trypanosomes were identified in peripheral blood first and cerebrospinal fluid (CSF) second, allowing the disease to be classified into an early (haemo-lymphatic) and a late (central nervous system [CNS]) stage, similar to the human disease. […] Monkey trypanosomal infections have been determined to be invariably fatal without therapeutic intervention, a characteristic also widely accepted as true for human sleeping sickness.
Parasitaemia and CSF parasitosis were monitored using established techniques for blood trypanosomes and CSF trypanosomes, respectively.
Due to a regulated freeze on acquisitions of new non-human primates, only six monkeys were available for the IM DB829 study. These animals were divided into three treatment groups, each consisting of one male and one female, to compare dose-responsiveness between consecutive- and alternate-day dosing. Monkeys were treated with 2.5 or 5 mg/kg/day for 5 consecutive days or with 5 mg/kg/day on alternating days for a total of 5 doses (Table 1).
Twelve additional monkeys were available for the oral DB868 efficacy study. These animals were, before infection, divided into three groups, each consisting of two males and two females. DB868 was administered orally to each group at 3, 10 or 20 mg/kg/day for 10 consecutive days (Table 2).
Parasitaemia post-infection was monitored daily, using ear-prick capillary blood, through the completion of DB868 and DB829 treatment. […] At 300 days post-LDD, monkeys were considered cured if they remained normal clinically and parasite-free in the blood and CSF. Pharmacokinetic outcomes were monitored for a minimum of 60 days post-LDD as described previously. […] Monkeys that relapsed, characterized by trypanosome recrudescence in the blood or CSF, were rescue-treated with melarsoprol.

[2] = Plasma pharmacokinetics in infected vervet monkeys (HPLC-MS/MS); format: in vivo, vervet monkey; conditions: for AUClast: last measurable concentration varied (112–490 days)
Text: Parasitaemia post-infection was monitored daily, using ear-prick capillary blood, through the completion of DB868 and DB829 treatment. Following the last drug dose (LDD), blood and CSF samples were examined for trypanosomes at 1, 4, 7, and 14 days to determine the end of treatment (EoT) response; monkeys which were positive for trypanosomes in either blood or CSF at the end of this 14-day period were classified as treatment failures/not cured while those that were free of trypanosomes were classified as provisionally cured. After the 14-day EoT evaluations, parasitaemia examinations were continued twice weekly to ≥ 300 days post-LDD as described previously. Additionally, physical examinations and haematological assessments were carried out once weekly up to 28 days post-LDD, once every two weeks between 28 and 100 days post-LDD, and monthly thereafter until the end of the study as described previously. At 300 days post-LDD, monkeys were considered cured if they remained normal clinically and parasite-free in the blood and CSF. Pharmacokinetic outcomes were monitored for a minimum of 60 days post-LDD as described previously. To facilitate the collection of blood and CSF for these assessments, the monkeys were anaesthetised with an IM injection of ketamine HCl (10–15 mg/kg) and diazepam (0.5 mg/kg). Monkeys that relapsed, characterized by trypanosome recrudescence in the blood or CSF, were rescue-treated with melarsoprol. Melarsoprol (Mel B), supplied by the World Health Organization as a 3.6% (w/v) solution in propylene glycol, was administered intravenously at 3.6 mg/kg/day for 4 consecutive days.
Plasma samples were processed for quantification of DB868 and DB829 by high performance liquid chromatography-tandem mass spectrometry (HPLC-MS/MS) as described previously. CSF samples were processed in a manner similar to that of plasma samples.
Clinical and haematological data were analysed using Statview for Windows Version 5.0.1 (1995–1998; SAS Institute Inc., Cary, NC, USA). Repeated measures ANOVA, with Fisher’s PLSD post hoc test, was used to test the effect of trypanosome infection on haematologic parameters in comparison with respective baseline values (α = 0.05). In addition, the effects of IM DB829 and oral DB868 on these haematologic parameters in monkeys with confirmed second stage HAT were tested. Pharmacokinetic outcomes were recovered using traditional non-compartmental methods using Phoenix WinNonlin (version 6.2; Pharsight, Mountain View, CA, USA).

[3] = IM 2.5mg/kg × 5 days, monkeys 546M, 693F
[4] = IM 5 mg/kg × 5 alternate days, monkeys 668M, 676F
[5] = IM 5 mg/kg × 5 days, monkeys 569F, 659M
[6] = IM DB829 consecutive-day dosing
[7] = after 5th IM dose, Group 1 = 5 mg/kg × 5 consecutive days, 5 mg/kg
[8] = after 5th IM dose, Group 3 = 2.5 mg/kg × 5 consecutive days, 2.5 mg/kg

N=C(N)c1ccc(-c2ccc(-c3ccc(C(=N)N)cn3)o2)nc1 [DB829, 2,5-bis(5-amidino-2-pyridyl)furan]
Cured/treated ([1]; IM 2.5mg/kg × 5 days): 2/2 | Final efficacy assessment at 300 days post-LDD of DB829 [1, 3]: Cured | Provisional efficacy at 100 days post-LDD of DB829 [1, 3]: Cured | Trypanosomes at EoT [1, 3]: Neg | Cured/treated ([1]; IM 5 mg/kg × 5 alternate days): 2/2 | Final efficacy assessment at 300 days post-LDD of DB829 [1, 4]: Cured | Provisional efficacy at 100 days post-LDD of DB829 [1, 4]: Cured | Trypanosomes at EoT [1, 4]: Neg | Cured/treated ([1]; IM 5 mg/kg × 5 days): 1/1 | Time to initial clearance of trypanosomes from body fluids (blood and CSF) ([1]; IM 5 mg/kg × 5 days, alternate-day dosing (28, 30, 30, 32, 34 and 36 DPI), monkeys 668M, 676F): 1 days post-LDD | Time to initial clearance of trypanosomes from body fluids (blood and CSF) ([1]; IM 5mg/kg × 5 days, consecutive-day dosing 28–32 DPI, monkeys 569F, 659M): 1 days post-LDD | Final efficacy assessment at 300 days post-LDD of DB829 ([1]; IM 5 mg/kg × 5 days, monkey 569F (659M withdrawn)): Cured | Provisional efficacy at 100 days post-LDD of DB829 [1, 5]: Cured | Trypanosomes at EoT [1, 5]: Neg | Time to initial clearance of trypanosomes from body fluids (blood and CSF) ([1]; IM, monkeys 546M, 693F, Table 3 prints 5mg/kg × 5 days, consecutive-day dosing 28–32 DPI (text: 2.5 mg/kg/day)): 4 days post-LDD and 7 days post-LDD | Final efficacy assessment at 300 days post-LDD of DB829, Overall Results (final combined cure rate) ([1]; all IM DB829 regimens combined): cured all monkeys and 5/5 | Provisional efficacy at 100 days post-LDD of DB829, Overall Results ([1]; all IM DB829 regimens combined): 6/6 | Trypanosomes at EoT, Overall Results (provisional cure rate) ([1]; all IM DB829 regimens combined): 6/6 | geometric mean plasma Cmax of DB829 relative to that after oral DB868 at 20 mg/kg/day ([2]; IM DB829 2.5 mg/kg/day): 10 times | AUC, alternate-day relative to consecutive-day dosing regimen ([2]; IM DB829 5 mg/kg/day): 5 fold | geometric mean plasma Cmax of DB829 relative to that after oral DB868 at 20 mg/kg/day ([2]; IM DB829 5 mg/kg/day, after last of 5 doses): 25 fold | terminal half-life, alternate-day relative to consecutive-day dosing regimen ([2]; IM DB829 5 mg/kg/day, 5 mg/kg/day): 4 fold and 5 fold | median plasma Tmax ([2]; IM DB829 2.5 and 5 mg/kg/day consecutive-day dose groups): 0.04 days | geometric mean AUC, 5 mg/kg/day group relative to 2.5 mg/kg/day group [2, 6]: 2.1 fold | geometric mean Cmax, 5 mg/kg/day group relative to 2.5 mg/kg/day group [2, 6]: 2.7 fold | AUC0-∞ [2, 7]: 13000 nmol·days/L and 15000 nmol·days/L | Cl/F (apparent clearance) [2, 7]: 0.528 mL/min/kg | t½ (terminal half-life) [2, 7]: 44 days | AUClast [2, 7]: 12000 nmol·days/L and 13000 nmol·days/L | t½ (terminal half-life) ([2]; after 5th IM dose, Group 2 = 5 mg/kg × 5 alternating days, 5 mg/kg): 180 days | AUC0-∞ [2, 8]: 8300 nmol·days/L and 5300 nmol·days/L | Cl/F (apparent clearance) [2, 8]: 0.694 mL/min/kg | t½ (terminal half-life) [2, 8]: 42 days | AUClast [2, 8]: 7700 nmol·days/L and 4500 nmol·days/L | geometric mean AUC0–63 of DB829 relative to single monkey of 3 mg/kg/day group ([2]; after oral DB868 10 mg/kg/day): approximately 3 fold | geometric mean AUC0–63 of DB829 relative to single monkey of 3 mg/kg/day group ([2]; after oral DB868 20 mg/kg/day): ~4 fold | CL/F ([2]; monkey, in vivo, im, 2.5 mg/kg, after 5th IM dose, Group 3 = 2.5 mg/kg × 5 consecutive days, read-out: Cl/F (apparent clearance) (converted)): 0.465 mL/min/kg
